The text below walks through data of patent publication US7557085B2, “Metabolic-based methods for modulating gene expression” (Wisconsin Alumni Research Foundation, priority 2005, dated 2009).

Test [1] concerns seizures evoked by kindling. Put plainly: kindling model of epilepsy, afterdischarge (AD) threshold. Details: change of AD threshold / duration of anticonvulsant effects after stopping 2-DG: dose or concentration left out as unconfirmed. It is filed as in vivo, Sprague Dawley rats. How it is done: FIG. 2 illustrates the effects on after-discharge threshold of 2-DG in a […] model of epilepsy.
2-deoxy-D-glucose (2-DG), a potent inhibitor of glycolysis, was administered to rats experiencing epileptic seizures evoked by kindling, which induces seizures and long-term alterations in pathways of the hippocampal formation resembling human temporal lobe epilepsy. The effects of 2-DG on seizures evoked by kindling were examined in Sprague Dawley rats that received 2-DG and were compared to a saline-injected control group. Both groups initially received twice daily kindling stimulation (1 sec trains of 1 ms bipolar constant current pulses at 60 Hz) delivered to the perforant path input to the hippocampus according to established procedures, until 3 afterdischarges (ADs) accompanied by behavioral seizures were evoked. […]
Dosage amount and interval of administration of compounds of the present invention can be adjusted individually to reduce seizure frequency, duration or intensity. For example, doses of 250 mg/kg 2-DG or less to higher as tolerated can be used to reduce seizure frequency and minimize toxicity. Doses of as much as 2000 mg/kg 2-DG are well tolerated in rats. […] A practitioner skilled in the art can adjust dosage in the range up to 500-600 mg/kg 2-DG and the timing of administration to produce prolonged anticonvulsant and antiepileptic effects. Efficacious dosage amounts can be adjusted to about 14 mg/kg 2-DG in children and 40 mg/kg 2-DG in adults, using therapeutic efficacy measurements (e.g., reduction in frequency or severity of seizures) as a criterion for establishing effective dosage levels.

The subject of the next test is BDNF. As to the kind of experiment: QRT-PCR of hippocampal tissue from kindled rats, BDNF. It is filed as in vivo, rat. From the text:
Values plotted are BDNF or TrkB expression over Actin using rat hippocampal cDNA from an untreated rat for a standard curve. Specifically, mRNA was extracted from hippocampus tissue from rats treated with 2-DG or untreated control rats subjected to kindling stimulation to mimic epilepsy. […] The levels of actin mRNA were not affected by 2-DG treatment. Importantly, the differences in expression of BDNF or TrkB in the absence or presence of 2DG were present after 5 ADs in association with a large difference in AD threshold between 2DG-treated and control rats (FIG. 3 lanes 5 versus 6 and 7 versus 8).

In a further test the test system is NRSF mediated repression. As to the kind of experiment: gal4-NRSF luciferase reporter (G5-TATA-Luc) in JTC-19 cells. The following applies: JTC-19 cells. It is filed as cell-based, rat. (In general: A reporter such as luciferase makes a cellular process visible.)
Test [2] relates to NRSF target genes Sodium Type II (NaV1.2), BDNF, CHRM4. As to the kind of experiment: QRT-PCR of chromosomal NRSF target genes in JTC-19 cells. The format is cell-based, rat. Conditions: 1 mM 2-DG for 24 hrs. From the text:
FIG. 5 are graphs showing the results of quantitative reverse-transcriptase-PCR experiments, wherein NaV1.2 is sodium type II (NaV1.2); BDNF is Brain Derived Neurotrophic Factor (BDNF) and CHRM4 is muscarinic acetylcholine receptor type 4 (CHRM4), all genes repressed by NRSE/NRSF, and actin (not an NRSF target).
Firefly luciferase measurements were normalized to co-transfected pRL-TK and expressed as fold repression (gal4 DBD/gal4-NRSF). Values are the average of at least three experiments performed in triplicate. Error bars indicate standard errors. […] In these experiments, cells were grown in the presence or absence of 1 mM 2-DG for 24 hrs, harvested and RNA subjected to QRT-PCR with primers to the NRSF target genes Sodium Type II (NaV1.2), Brain Derived Neurotrophic Factor (BDNF) and Muscarinic Acetylcholine Receptor Type 4 (CHRM4) or actin (not an NRSF target). Rat hippocampal cDNA was used to generate a standard curve and values plotted are microliter equivalents of hippocampal cDNA.

For a further test, the system named is CHRM4. As to the kind of experiment: QRT-PCR of CHRM4 in CtBP1/CtBP2 mutant Mouse Embryonic Fibroblasts. It is filed as cell-based. The following applies: 1 mM 2-DG. How it is done: FIG. 7C is a graph of normalized CHRM4 expression in MEFs bearing an inactivating mutation in heterozygous (−/+) or homozygous (−/−) state for both CtBP1 and CtBP2, assayed in the presence of absence of 2-DG.
To test whether CtBP was required for NRSF repression of chromosomal genes, expression levels of NRSF target genes were assayed in Mouse Embryonic Fibroblasts (MEFs) heterozygous or homozygous for deletions of both CtBP1 and CtBP2 (as described in Hildebrand & Soriano, 2002, Mol Cell Biol 22: 5296-307). In these experiments, wild type MEFs or MEFs heterozygous (CtBP1^−/+2^−/+) or homozygous (CtBP1^−/−2^−/−) for both CtBP1 and CtBP2 mutants were analyzed for CHRM4, Myelin Basic Protein (MBP) and hypoxanthine phosphoribosyl transferase (HPRT, as a non-NRSF regulated control) expression by QRT-PCR as described in Example 2. […] The expression levels of both genes were further elevated in CtBP1^−/−/2^−/− cells, consistent with a dose-responsive co-repressor function for CtBP.

For a further test, the system named is actin promoter. Put plainly: ChIP on hippocampi of rats administered 2-DG or saline, actin promoter. The format is in vivo. Conditions: rat hippocampi, without regard to the glycolytic state. From the text: FIG. 10I is a graph of CHIP assays performed on hippocampi from rats administered 2-DG or saline for 2 weeks and using a cocktail of anti-CtBP1 and anti-CtBP2 antibody or sham antibody and primers flanking the BDNF NRSE or actin promoter. Data is plotted as quantity of DNA specifically precipitated in picograms.
The above results predicted that CtBP would be present at the BDNF NRSF binding site in rat hippocampi and that occupancy at this site should be augmented in the presence of 2-DG. To test this prediction, ChIP assays were performed using anti-CtBP antibody on chromatin isolated from 2DG-treated rats as above. Hippocampi from rats administered 2-DG or saline for 2 weeks were subjected to ChIP with a cocktail of anti-CtBP1 and anti-CtBP2 antibody or sham antibody and primers flanking the BDNF NRSE or actin promoter. […] CtBP was not detected at the actin promoter without regard to the glycolytic state of the animal, as expected for a gene not under NRSF regulatory control.

`O=CC[C@@H](O)[C@H](O)[C@H](O)CO` [2-DG, 2-deoxy-D-glucose]: the “AD threshold reached with repeated stimulations” value in test [1] (rats, 2-DG 200 mg/kg subcutaneously 30 minutes prior to each kindling stimulation, maximum intensity of the stimulation protocol) is 1500 μramps. For the same compound, the “change of AD threshold” value in test [1] (subcutaneous prior to each kindling stimulation that evoked AD, saline control showed a decrease) is “gradual increase”. The “duration of anticonvulsant effects after stopping 2-DG” value in test [1] (twice daily for 3 months, twice daily stimulation continued) is “approximately 8 weeks”. Also, the “hippocampal BDNF expression compared to control animals” value with BDNF (QRT-PCR, expression over actin, FIG. 3 lanes 1 versus 2) was “significantly reduced”. Moreover, the “difference in expression of BDNF in absence or presence of 2DG” value in the test with BDNF (after 5 ADs) is “present”. For the same compound, in the test with BDNF (rats that experienced 3 Class V seizures), the “BDNF expression, 2DG-treated versus control rats” value is recorded as “no difference in expression”. Also, the “repression by NRSF of luciferase reporter” value in the test on NRSF mediated repression (2-DG added to pyruvate and glucose) is given as “augmented this effect”; in the test with NRSF mediated repression (in the absence of glucose), “unable to further augment repression”; with NRSF mediated repression (in the presence of glucose) it was “increased repression”. Also, the “repression of luciferase reporter gene expression by NRSF (fold repression gal4 DBD/gal4-NRSF)” value in the test with NRSF mediated repression (16 hrs) was “increased repression”. Besides, in test [2], the “expression of chromosomal NRSF target genes” value is reported as “repressed”. Besides, the CHRM4 expression entry in the test on CHRM4 (CtBP1-/+/2-/+ cells) is reported as “repressed”; with CHRM4 (CtBP1-/-/2-/- cells) it was “not altered”. The “CtBP at the actin promoter” value in the test with actin promoter was “not detected”.
